Experimental data: US7446199B2, “Compositions useful as inhibitors of protein kinases” (Vertex Pharmaceuticals Incorporated, priority 2003, dated 2008)

Columns and labels:
SYK = SYK (Homo sapiens, UniProt P43405); assay: SYK enzyme assay, coupled enzyme assay; type: biochemical; details: 200 μM ATP, 4 μM poly Gly-Tyr peptide, 30° C.
Experimental: Compounds were screened for their ability to inhibit SYK using a standard coupled enzyme assay (Fox et al., Protein Sci. 1998, 7, 2249). Reactions were carried out in 100 mM HEPES (pH 7.5), 10 mM MgCl2, 25 mM NaCl, 1 mM DTT and 1.5% DMSO. Final substrate concentrations in the assay were 200 μM ATP (Sigma chemical Co.) and 4 μM poly Gly-Tyr peptide (Sigma Chemical Co.). Assays were carried out at 30° C. and 200 nM SYK. Final concentrations of the components of the coupled enzyme system were 2.5 mM phosphoenolpyruvate, 300 μM NADH, 30 μg/ml pyruvate kinase and 10 μg/ml lactate dehydrogenase.
An assay stock buffer solution was prepared containing all of the reagents listed above, with the exception of SYK, DTT, and the test compound of interest of the present invention. 56 μl of the test reaction was placed in a 96 well plate followed by the addition of 1 μl of 2 mM DMSO stock containing the test compound of the present invnetion (final compound concentration 30 μM). The plate was pre-incubated for ˜10 minutes at 30° C. and the reaction initiated by the addition of 10 μl of enzyme (final concentration 25 nM). Rates of reaction were obtained using a BioRad Ultramark plate reader (Hercules, Calif.) over a 5 minute read time at 30° C., and Ki values for the compounds of the present invention were determined according to standard methods.

FLT-3 = biological target: T1, FLT-3 (Homo sapiens, UniProt P36888); assay: Inhibition of FLT-3, radiometric filter-binding assay; type: biochemical; details: 90 μM ATP, 0.5 mg/mL pE4Y, room temperature
T1 construct: 0.02% BSA and 3 nM FLT-3
T1 sequence (P36888 27-993): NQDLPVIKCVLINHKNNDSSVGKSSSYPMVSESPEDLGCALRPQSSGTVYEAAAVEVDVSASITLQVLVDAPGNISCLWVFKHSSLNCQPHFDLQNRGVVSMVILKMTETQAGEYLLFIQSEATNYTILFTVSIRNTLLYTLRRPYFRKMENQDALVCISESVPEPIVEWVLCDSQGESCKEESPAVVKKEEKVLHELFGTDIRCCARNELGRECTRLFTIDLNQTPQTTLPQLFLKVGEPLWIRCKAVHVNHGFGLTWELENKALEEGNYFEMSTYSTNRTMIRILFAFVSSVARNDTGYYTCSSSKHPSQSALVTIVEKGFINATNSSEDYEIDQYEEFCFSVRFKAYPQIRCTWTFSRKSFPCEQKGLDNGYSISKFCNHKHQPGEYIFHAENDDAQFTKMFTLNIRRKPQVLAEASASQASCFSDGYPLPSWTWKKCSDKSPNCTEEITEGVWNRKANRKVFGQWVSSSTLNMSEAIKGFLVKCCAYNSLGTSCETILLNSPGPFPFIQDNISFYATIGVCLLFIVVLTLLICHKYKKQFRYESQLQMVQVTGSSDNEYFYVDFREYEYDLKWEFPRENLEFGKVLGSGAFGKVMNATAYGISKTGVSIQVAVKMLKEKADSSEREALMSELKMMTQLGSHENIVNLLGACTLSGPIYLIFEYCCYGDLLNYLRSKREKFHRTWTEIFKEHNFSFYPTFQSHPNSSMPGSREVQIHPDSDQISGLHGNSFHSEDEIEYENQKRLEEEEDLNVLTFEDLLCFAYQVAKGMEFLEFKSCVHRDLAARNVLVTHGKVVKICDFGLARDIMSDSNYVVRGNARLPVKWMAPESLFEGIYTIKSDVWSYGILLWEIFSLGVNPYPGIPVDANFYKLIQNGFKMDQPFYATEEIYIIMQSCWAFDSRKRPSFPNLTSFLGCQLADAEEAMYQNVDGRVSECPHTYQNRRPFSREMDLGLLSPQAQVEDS
Experimental: Compounds were screened for their ability to inhibit FLT-3 activity using a radiometric filter-binding assay. This assay monitors the ^33P incorporation into a substrate poly(Glu, Tyr) 4:1 (pE4Y). Reactions were carried out in a solution containing 100 mM HEPES (pH 7.5), 10 mM MgCl2, 25 mM NaCl, 1 mM DTT, 0.01% BSA and 2.5% DMSO. Final substrate concentrations in the assay were 90 μM ATP and 0.5 mg/mL pE4Y (both from Sigma Chemicals, St Louis, Mo.). The final concentration of compounds is generally between 0.01 and 5 μM. Typically, a 12-point titration was conducted by preparing serial dilutions from 10 mM DMSO stock of test compound. Reactions were carried out at room temperature.
Two assay solutions were prepared. Solution 1 contains 100 mM HEPES (pH 7.5), 10 mM MgCl2, 25 mM NaCl, 1 mg/ml pE4Y and 180 μM ATP(containing 0.3 μCi of [γ-^33P]ATP for each reaction). Solution 2 contains 100 mM HEPES (pH 7.5), 10 mM MgCl2, 25 mM NaCl, 2 mM DTT, 0.02% BSA and 3 nM FLT-3. The assay was run on a 96 well plate by mixing 50 μL each of Solution 1 and […] of the test compounds. The reaction was initiated with Solution2. After incubation for 20 minutes at room temperature, the reaction was stopped with 50 μL of 20% TCA containing 0.4 mM of ATP. All of the reaction volume was then transferred to a filter plate and washed with 5% TCA by a Harvester9600 from TOMTEC (Hamden, Conn.). The amount of ^33P incorporation into pE4y was analyzed by a Packard TopCount Microplate Scintillation Counter (Meriden, Conn.). The data was fitted using Prism software to get an IC50 or Ki.

Ki (SYK) | Ki (FLT-3) | SMILES
 | 200 to 1000 nM | CN(C)CCNc1ccc(-c2cnc3[nH]cc(-c4nncn4-c4cccc(F)c4F)c3c2)cn1 [Compound 119, N′-(5-{3-[4-(2,3-Difluoro-phenyl)-4H-[1,2,4]triazol-3-yl]-1H-pyrrolo[2,3-b]pyridin-5-yl}-pyridin-2-yl)-N,N-dimethyl-ethane-1,2-diamine]
 | 200 to 1000 nM | OC1CCN(c2ccc(-c3cnc4[nH]cc(-c5nncn5-c5cccc(F)c5F)c4c3)cn2)CC1 [Compound 116, 5′-{3-[4-(2,3-Difluoro-phenyl)-4H-[1,2,4]triazol-3-yl]-1H-pyrrolo[2,3-b]pyridin-5-yl}-3,4,5,6-tetrahydro-2H-[1,2′]bi-pyridinyl-4-ol]
 | < 200 nM | CN(C)C1CC=C(c2cnc3[nH]cc(-c4oncc4-c4cccc(F)c4F)c3c2)CC1 (centres unmarked) [Compound 138, (4-{3-[4-(2,3-Difluoro-phenyl)-isoxazol-5-yl]-1H-pyrrolo[2,3-b]pyridin-5-yl}-cyclohex-3-enyl)-dimethyl-amine]
 | 200 to 1000 nM | CN1CCCN(c2ccc(-c3cnc4[nH]cc(-c5nncn5-c5cccc(F)c5F)c4c3)cn2)CC1 [Compound 117, 3-[4-(2,3-Difluoro-phenyl)-4H-[1,2,4]triazol-3-yl]-5-[6-(4-methyl-[1,4]diazepan-1-yl)-pyridin-3-yl]-1H-pyrrolo [2,3-b]-pyridine]
 | < 200 nM | COC(=O)c1cnc2[nH]cc(-c3oncc3-c3cccc(F)c3F)c2c1 [Compound 105, 3-[4-(2,3-Difluoro-phenyl)-isoxazol-5-yl]-1H-pyrrolo[2,3-b]pyridine-5-carboxylic acid methyl ester]
 | < 200 nM | CN1CCN(Cc2ccc(-c3cnc4[nH]cc(-c5oncc5-c5cccc(F)c5F)c4c3)cc2)CC1 [Compound 94, 3-[4-(2,3-Difluoro-phenyl)-isoxazol-5-yl]-5-[4-(4-methyl-piperazin-1-ylmethyl)-phenyl]-1H-pyrrolo[2,3-b]pyridine]
 | < 200 nM | Fc1cccc(-c2cnoc2-c2c[nH]c3ncc(C4=CCC(N5CCOCC5)CC4)cc23)c1F (centres unmarked) [Compound 139, 3-[4-(2,3-Difluoro-phenyl)-isoxazol-5-yl]-5-(4-morpholin-4-yl-cyclohex-1-enyl)-1H-pyrrolo[2,3-b]pyridine]
 | 200 to 1000 nM | Fc1cccc(-n2cnnc2-c2c[nH]c3ncc(-c4ccc(N5CCCC5)nc4)cc23)c1F [Compound 118, 3-[4-(2,3-Difluoro-phenyl)-4H-[1,2,4]triazol-3-yl]-5-(6-pyrrolidin-1-yl-pyridin-3-yl)-1H-pyrrolo[2,3-b]pyridine]

Second part, the compound before the results:

SMILES | Ki (SYK) | Ki (FLT-3)
Fc1cccc(-c2cnoc2-c2c[nH]c3ncc(Br)cc23)c1F [Compound 37, 5-Bromo-3-[4-(2,3-difluoro-phenyl)-isoxazol-5-yl]-1H-pyrrolo[2,3-b]pyridine] | 1000 to 12500 nM | 
O=c1ccc(-c2cnc3[nH]cc(-c4oncc4-c4cccc(F)c4F)c3c2)c[nH]1 [Compound 67, 5-{3-[4-(2,3-Difluoro-phenyl)-isoxazol-5-yl]-1H-pyrrolo [2,3-b]pyridin-5-yl}-1H-pyridin-2-one] | 200 to 1000 nM | 
CN(C)c1ccc(-c2cnc3[nH]cc(-c4oncc4-c4cccc(F)c4F)c3c2)cc1 [Compound 88, (4-{3-[4-(2,3-Difluoro-phenyl)-isoxazol-5-yl]-1H-pyrrolo[2,3-b]pyridin-5-yl}-phenyl)-dimethyl-amine] | 1000 to 12500 nM | 
COc1ccnc(-c2cnc3[nH]cc(-c4oncc4-c4cccc(F)c4F)c3c2)c1 [Compound 78, 3-[4-(2,3-Difluoro-phenyl)-isoxazol-5-yl]-5-(4-methoxy-pyridin-2-yl)-1H-pyrrolo[2,3-b]pyridine] |  | 200 to 1000 nM
CN1CCC(c2cnc3[nH]cc(-c4oncc4-c4cccc(F)c4F)c3c2)CC1 [Compound 60, 3-[4-(2,3-Difluoro-phenyl)-isoxazol-5-yl]-5-(1-methyl-piperidin-4-yl)-1H-pyrrolo[2,3-b]pyridine] |  | 1000 to 12500 nM
Fc1cccc(Cc2cnoc2-c2c[nH]c3ncccc23)c1F [Compound 36, 3-[4-(2,3-Difluoro-benzyl)-isoxazol-5-yl]-1H-pyrrolo[2,3-b]pyridine] |  | 1000 to 12500 nM
Fc1cccc(-c2cnoc2-c2c[nH]c3ncc(-c4ccncc4)cc23)c1F [Compound 57, 3-[4-(2,3-Difluoro-phenyl)-isoxazol-5-yl]-5-pyridin-4-yl-1H-pyrrolo[2,3-b]pyridine] |  | < 200 nM
Fc1cccnc1-c1cnc2[nH]cc(-c3oncc3-c3cccc(F)c3F)c2c1 [Compound 74, 3-[4-(2,3-Difluoro-phenyl)-isoxazol-5-yl]-5-(3-fluoro-pyridin-2-yl)-1H-pyrrolo[2,3-b]pyridine] |  | 1000 to 12500 nM
Oc1cccc(-c2cnc3[nH]cc(-c4oncc4-c4cccc(F)c4F)c3c2)c1 [Compound 87, 3-{3-[4-(2,3-Difluoro-phenyl)-isoxazol-5-yl]-1H-pyrrolo [2,3-b]pyridin-5-yl}-phenol] |  | < 200 nM
Fc1cccc(-c2cnoc2-c2c[nH]c3ncc(C4CCNCC4)cc23)c1F [Compound 62, 3-[4-(2,3-Difluoro-phenyl)-isoxazol-5-yl]-5-piperidin-4-yl-1H-pyrrolo[2,3-b]pyridine] |  | 200 to 1000 nM
CN(C)c1ccnc2[nH]cc(-c3oncc3-c3cccc(F)c3F)c12 [Compound 56, {3-[4-(2,3-Difluoro-phenyl)-isoxazol-5-yl]-1H-pyrrolo[2,3-b]pyridin-4-yl}-dimethyl-amine] |  | 1000 to 12500 nM
COc1cnc2[nH]cc(-c3oncc3-c3cccc(Cl)c3Cl)c2c1 [Compound 49, 3-[4-(2,3-Dichloro-phenyl)-isoxazol-5-yl]-5-methoxy-1H-pyrrolo[2,3-b]pyridine] |  | 200 to 1000 nM
Clc1cccc(-c2cnoc2-c2c[nH]c3ncccc23)c1Cl [Compound 2, 3-[4-(2,3-Dichloro-phenyl)-isoxazol-5-yl]-1H-pyrrolo[2,3-b]pyridine] |  | 1000 to 12500 nM
Fc1cccc(-c2cnoc2-c2c[nH]c3ncc(-c4cncnc4)cc23)c1F [Compound 85, 3-[4-(2,3-Difluoro-phenyl)-isoxazol-5-yl]-5-pyrimidin-5-yl-1H-pyrrolo[2,3-b]pyridine] |  | 200 to 1000 nM
C=Cc1cnc2[nH]cc(-c3oncc3-c3cccc(F)c3F)c2c1 [Compound 66, 3-[4-(2,3-Difluoro-phenyl)-isoxazol-5-yl]-5-vinyl-1H-pyrrolo[2,3-b]pyridine] |  | 200 to 1000 nM
